In BindingDB's records for doi:10.1021/jm5006226 (Bristol Myers Squibb, 2014):

Experiment: Antagonist activity at P2Y1 receptor in platelet-enriched human plasma assessed as 10 uM ADP-induced platelet aggregation preincubated for 1 min followed by ADP induction measured at 5 mins by aggregometric analysis

IC50	SMILES
80 nM	CC1(C)CN(c2ccccc2NC(=O)Nc2ccc(OC(F)(F)F)cc2)c2c(O)ccc(-c3ccccc3F)c21
110 nM	CC1(C)CN(c2ccccc2NC(=O)Nc2ccc(OC(F)(F)F)cc2)c2c(O)cc(F)c(-c3ccc(C(F)(F)F)cn3)c21
230 nM	CC1(C)CN(c2ccccc2NC(=O)Nc2ccc(OC(F)(F)F)cc2)c2c(O)ccc(-c3ccc(C(F)(F)F)cc3)c21
190 nM	CC1(C)CN(c2ccccc2NC(=O)Nc2ccc(OC(F)(F)F)cc2)c2c(O)cc(F)c(-c3ccc(F)cc3)c21
240 nM	CC1(C)CN(c2ccccc2NC(=O)Nc2ccc(OC(F)(F)F)cc2)c2c(O)ccc(-c3cccc(F)c3)c21
870 nM	CC1(C)CN(c2ccccc2NC(=O)Nc2ccc(OC(F)(F)F)cc2)c2c(O)ccc(Cl)c21
90 nM	CC1(C)CN(c2ccccc2NC(=O)Nc2csc(Cl)n2)c2c(O)ccc(-c3ccc(F)cc3)c21
230 nM	CC1(C)CN(c2ccccc2NC(=O)Nc2nc3ccc(Cl)nc3s2)c2c(O)ccc(-c3ccc(F)cc3)c21
180 nM	CC1(C)CN(c2ccccc2NC(=O)Nc2ccc(OC(F)(F)F)cc2)c2c(O)ccc(-c3ccccc3)c21
1400 nM	CC1(C)CN(c2ccccc2NC(=O)Nc2nc3ccc(Cl)nc3s2)c2c(O)ccc(Cl)c21
130 nM	CC1(C)CN(c2ccccc2NC(=O)Nc2ccc(OC(F)(F)F)cc2)c2c(O)cc(F)c(-c3ccc(Cl)s3)c21
210 nM	CC1(C)CN(c2ccccc2NC(=O)Nc2ccc(OC(F)(F)F)cc2)c2c(O)ccc(-c3ccc(Cl)cc3)c21
430 nM	Cc1nc(NC(=O)Nc2ccccc2N2CC(C)(C)c3c(-c4ccc(F)cc4)ccc(O)c32)cs1
610 nM	CCOC(=O)C1(C)CN(c2ccccc2NC(=O)Nc2nc3ccc(Cl)nc3s2)c2c(O)ccc(Cl)c21 (stereo not drawn)
160 nM	CC1(C)CN(c2ccccc2NC(=O)Nc2ccc(OC(F)(F)F)cc2)c2c(O)ccc(-c3ccc(F)cc3)c21
150 nM	CC1(C)CN(c2ccccc2NC(=O)Nc2ccc(OC(F)(F)F)cc2)c2c(O)cc(F)c(-c3ccc(C(F)(F)F)nc3)c21
160 nM	CC1(C)CN(c2ccccc2NC(=O)Nc2ccc(OC(F)(F)F)cc2)c2c(O)cc(F)c(-c3cc(F)nc(F)c3)c21
950 nM	CC1(C)CN(c2ccccc2NC(=O)Nc2ccc(OC(F)(F)F)cc2)c2c(O)cc(F)c(-c3ncc(F)cn3)c21
390 nM	CC1(C)CN(c2ccccc2NC(=O)Nc2ccc(OC(F)(F)F)cc2)c2c(O)c(F)cc(-c3ccc(F)cc3)c21
90 nM	CC(C)(C)CN1CCCC1c1ccc(NC(=O)Nc2ccccc2N2CC(C)(C)c3c(-c4ccc(F)cc4)ccc(O)c32)cc1 (stereo not drawn)
260 nM	CC1(C)CN(c2ccccc2NC(=O)Nc2ccc(OC(F)(F)F)cc2)c2c(O)cc(F)c(-c3cnc(Cl)cn3)c21
240 nM	CC1(C)CN(c2ccccc2NC(=O)Nc2ccc(OC(F)(F)F)cc2)c2c(O)cc(F)c(-c3ccc(Cl)cc3)c21
300 nM	CC1(C)CN(c2ccccc2NC(=O)Nc2ccc(OC(F)(F)F)cc2)c2c(O)c(F)cc(-c3ccc(Cl)cc3)c21
160 nM	CC1(C)CN(c2ccccc2NC(=O)Nc2ccc(OC(F)(F)F)cc2)c2c(O)ccc(-c3ccc(F)cc3F)c21
400 nM	CC1(C)CN(c2ccccc2NC(=O)Nc2ccc(OC(F)(F)F)cc2)c2c(O)ccc(-c3ccc(F)c(F)c3)c21
180 nM	CC1(C)CN(c2ccccc2NC(=O)Nc2ccc(OC(F)(F)F)cc2)c2c(O)ccc(-c3cc(F)cc(F)c3)c21
3100 nM	CCOC(=O)C1(C)CN(c2ccccc2NC(=O)Nc2ccc(OC(F)(F)F)cc2)c2c(O)ccc(Cl)c21 (stereo not drawn)
2900 nM	CC1(CC(F)(F)F)CN(c2ccccc2NC(=O)Nc2ccc(OC(F)(F)F)cc2)c2c(O)ccc(Cl)c21 (stereo not drawn)
50 nM	CC(C)CN1CCCC1c1ccc(NC(=O)Nc2ccccc2N2CC(C)(C)c3c(-c4ccc(F)cc4)ccc(O)c32)cc1 (stereo not drawn)

SMILES	IC50
CC(C)(C)CN1CCC2(CC1)CN(c1ccccc1NC(=O)Nc1ccc(OC(F)(F)F)cc1)c1c(O)cc(F)c(-c3ccc(Cl)cc3)c12	200 nM
CC(C)(C)CN1CCC2(CC1)CN(c1ccccc1NC(=O)Nc1nc3ccc(Cl)nc3s1)c1c(O)ccc(Cl)c12	130 nM
CC(C)(C)CN1CCC2(CC1)CN(c1ccccc1NC(=O)Nc1ccc(OC(F)(F)F)cc1)c1c(O)cc(F)c(-c3ccc(F)cc3)c12	140 nM
CC(C)(C)CN1CCC2(CC1)CN(c1ccccc1NC(=O)Nc1nc3ccc(Cl)nc3s1)c1c(O)cc(F)c(-c3ccc(F)cc3)c12	180 nM
